Tested on: U2OS PGC1a acetylation, AlphaLISA, overnight
Assay: reduced cellular PGC1a acetyl-lysine signal – cell-based, cherry-picked samples, dose response (AID 720514);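 also: actives lower the acetylation signal so they count as inhibitors of PGC1a acetylation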

| SMILES | AC50 |
| --- | --- |
| C[C@H]1CN([C@@H](C)CO)C(=O)Cc2cc(NC(=O)Nc3ccccc3)ccc2O[C@@H]1CN(C)Cc1ccccc1 | 21.5 µM |
| C[C@H]1[C@@H](OS(=O)(=O)O)C[C@@H]2C[C@H]([C@@H](O)c3cc(=O)[nH]c(=O)[nH]3)NC3=NC[C@H]1N32 | 3.65 µM |

— PubChem BioAssay AID720514 (Broad Institute, 2013)
